Experimental findings from patent publication US20220024963A1, “SALT OF TRIPHOSPHATE PHOSPHORAMIDATES OF NUCLEOTIDES AS ANTICANCER COMPOUNDS” (priority 2019, published 2022) are described below.

One experiment relates to HL60 (AML). The experiment can be described thus: Cytotoxicity assay (AlamarBlue - resazurin dye), 72 h (Example B). The class given is cell-based. The source says: (§1) The efficacy (evaluated by IC50) of clofarabine and 3 different compounds representing different class of clofarabine ProTides (monophosphate, diphosphate and triphosphate molecules) was compared.
(§2) The tested cancer cell lines were acute lymphoblastic leukaemia (ALL), acute myeloid leukaemia (AML) and lymphoma: CCRF-CEM (ALL), HL60 (AML), KG1 (AML), OCI-AML3 (AML) and RL (lymphoma), grown in suspension, in RPMI-1640 media, supplemented with 10% FBS serum and 1% pen strep, except for KG1 cell line for which FBS was 20%.
(§3) For all experiments, cells were plated on a 96 well plate, at a density of 10,000 cells/well in 50 μL media. Dilutions from stock concentration to working solutions were prepared in media; at twice the required concentration and 50 μL was added per well (this achieving the final concentrations described in results below). Control untreated received 50 μL of plain media. After 66 h 10 μL of resazurin was added per well (dilution 1:10). Cells were then incubated with for up to 6 h. After 72 h treatment, cytotoxicity assay (AlamarBlue™−resazurin dye) was performed to determine cell survival. Plates were scanned with a BioHit800 plate reader and data were analysed with Excel and GraphPad Prism.
(§4) A low IC50 indicates greater potency under these laboratory conditions.
A general note: The colour change of resazurin is a common sign of viable cells or microbes.

Another experiment relates to RL (lymphoma). The description is as above. The class given is cell-based. Conditions: 72 h treatment.
Excerpt: as §1, §2, §3, §4

In a further experiment the test system is KG1 (AML). The experiment is described as above. The class given is cell-based. Conditions: KG1, 72 h treatment.
Excerpt: as §1, §2, §3, §4

A further experiment deals with RPMI-8226. In words: In vitro viability assay, CellTiterGlo, 72 h (Example A). It is filed as cell-based, Human. To be noted: RPMI-8226, CellTiterGlo; for pEC50: read-out: Ab EC50. As for the experimental part: (§5) A compound of the invention was assayed for cytotoxic activity in an array of different solid tumours and haematological malignancies using the following assay.
(§6) In vitro viability assay was performed to assess the effects of compounds on cell viability in selected cell lines over 72 h using the CellTiterGlo (CTG, Promega-G7573) assay. The tests were performed in duplicates with treatment of compounds at 9 points, 3.16 folds titration in 96 well plates over ˜72 h. The compound starting concentrations were 198 μM. Cell viability assay using CellTiterGlo in 96-well plate were performed. Compound treatment 72 h, standard growth conditions, duplicates. Compounds were dissolved to 40 mM with thawed […]. Compounds were serially diluted at 3.16 fold in thawed DMSO and warmed to 37° C. before being dissolved in media (2 μL+200 μL). After compounds were dissolved in media, media containing compounds were warmed to 37° C. in incubator and then compounds in media were added to cell plates (50 μL+50 μL) in duplicates. The compounds' final concentrations were from 198 μM to 19.8 nM. All compound solubilities were checked and recorded again, then the plates were transferred to CO2 tissue culture incubator immediately and incubated for 3 days. DMSO final concentration is 0.5%.
For orientation: Cellular ATP, detected with luciferase, serves as a proxy for viable cell number.

In a further experiment the test system is CCRF-CEM (ALL). In words: cells. It is filed as cell-based. To be noted: for Survival @ 25 nM / Survival @ 50 nM / Survival @ 125 nM: percentage of cell survival, 72 h; for pIC50: 72 h treatment, AlamarBlue.
Excerpt: as §1, §2, §3, §4
(§7) Clofarabine, A, 5a, 5b, 5c, 5d, 5e and 5f were tested against CCRF-CEM and OCI-AML3 cells. Data is represented as the percentage ofcell survival for each ofthe different concentrations to which cells were exposed, rather than calculating a formal IC50 from only two or three datapoints.

For the next experiment, the system named is OCI-AML3 (AML). In words: cells. The class given is cell-based. To be noted: for pIC50: OCI-AML3, 72 h treatment, AlamarBlue; for Survival @ 50 nM: OCI-AML3, 50 nM; for Survival @ 50 nM / Survival @ 125 nM: percentage of cell survival, 72 h; for Survival @ 125 nM: OCI-AML3, 125 nM.
Excerpt: as §1, §2, §3, §4, §7

The next experiment relates to HepG2. The experiment can be described thus: In vitro viability assay, CellTiterGlo, 72 h (Example A). Conditions: for pEC50: read-out: Ab EC50. It is filed as cell-based. As for the experimental part: as §5, §6
For another experiment, the system named is HL-60. Described as above. The class given is cell-based. To be noted: HL-60, CellTiterGlo; for pEC50: read-out: Ab EC50. As to the method:
as §5, §6

The subject of a further experiment is KG-1. The description is as above. The class given is cell-based. Conditions: KG-1, CellTiterGlo; for pEC50: read-out: Ab EC50. As for the experimental part:
as §5, §6

A further experiment deals with K562. The experiment is described as above. It is filed as cell-based. Conditions: for pEC50: read-out: Ab EC50. As for the experimental part: as §5, §6
A further experiment relates to CCRF-CEM. The experiment is described as above. The class given is cell-based. Conditions: for pEC50: read-out: Ab EC50. As to the method: as §5, §6
Another experiment relates to RL. Described as above. It is filed as cell-based. Conditions: for pEC50: read-out: Ab EC50. As to the method:
as §5, §6

Another experiment concerns MOLT-4. Described as above. The class given is cell-based. To be noted: MOLT-4, CellTiterGlo; for pEC50: read-out: Ab EC50. As for the experimental part: as §5, §6
The test system of another experiment is HT29. Described as above. The class given is cell-based. As for the experimental part:
as §5, §6

The subject of experiment [1] is CCRF-CEM and OCI-AML3 cells. The class given is cell-based. Conditions: both cell lines. As to the method:
as §3, §7

The mark [2] stands for this setting: Homo sapiens, HL-60, HL60, 72 h treatment.

pEC50, pIC50: −log10 of the molar value. Counter-ions that a name gives are not always drawn. Like-named read-outs stand apart in the source and are kept apart here.

Turning to `C[C@H](NP(=O)(OC[C@H]1O[C@@H](n2cnc3c(N)nc(Cl)nc32)C(F)[C@H]1O)Oc1ccccc1)C(=O)OCc1ccccc1` (some centres unmarked) [A], the pIC50 in the experiment with HL60 (AML) (setting [2]) is 7.04; with RL (lymphoma) it was 6.40; in the experiment on KG1 (AML) it was 5.75; in the experiment with CCRF-CEM (ALL) (Homo sapiens), 6.56; in the experiment on OCI-AML3 (AML) (Homo sapiens, OCI-AML-3), 6.60. For the same molecule, the pEC50 in the experiment on RPMI-8226 (Homo sapiens) was 5.04; with HepG2 (Homo sapiens), 5.12; in the experiment with HL-60 (Homo sapiens), 6.66; in the experiment with KG-1 (Homo sapiens), 6.36; in the experiment with K562 (Homo sapiens), 4.56; in the experiment on CCRF-CEM (Homo sapiens), 7.10. The pEC50 in the experiment on RL (Homo sapiens) was 5.37; in the experiment on MOLT-4 (Homo sapiens), 6.60; in the experiment with HT29 (Homo sapiens, HT-29, read-out: Ab EC50), 5.76. Moreover, the “Top Inhibit” value in the experiment on RPMI-8226 worked out at 83%; in the experiment with HepG2 it was 99%; with HL-60, 95%; in the experiment with KG-1, 93%; with K562 it was 85%; with CCRF-CEM, 99%. In addition, the figures for the “Top Inhibit” value in the experiment with RL, in the experiment on MOLT-4 and in the experiment on HT29 were 90%, 100% and 86%, respectively. For the same molecule, in the experiment on CCRF-CEM (ALL), the “Survival @ 25 nM” value is recorded as 96%. Besides, the “Survival @ 50 nM” value in the experiment on CCRF-CEM (ALL) was determined as 100%; in the experiment on OCI-AML3 (AML), 99%. Also, the “Survival @ 125 nM” value amounted to 100% in the experiment on CCRF-CEM (ALL) and 96% with OCI-AML3 (AML).

Regarding `C[C@H](NP(=O)(Oc1ccccc1)OP(=O)(O)OC[C@H]1O[C@@H](n2cnc3c(N)nc(Cl)nc32)C(F)[C@H]1O)C(=O)OCc1ccccc1` (some centres unmarked) [B], the pIC50 in the experiment on HL60 (AML) (setting [2]) was 7.14; with RL (lymphoma) it was 6.82; in the experiment on KG1 (AML) it was 6.57; in the experiment on CCRF-CEM (ALL) (Homo sapiens), 7.08; in the experiment with OCI-AML3 (AML) (Homo sapiens, OCI-AML-3) it was 6.92.

As to `C[C@H](NP(=O)(Oc1cccc2ccccc12)OP(=O)(O)OP(=O)(O)OC[C@H]1O[C@@H](n2cnc3c(N)nc(Cl)nc32)[C@@H](F)[C@@H]1O)C(=O)OCc1ccccc1` (stereo partly drawn) [Compound 5b, (2S)-Benzyl 2-(((((((((2R,3R,4S,5R)-5-(6-amino-2-chloro-9H-purin-9-yl)-4-fluoro-3-hydroxytetrahydrofuran-2-yl)methoxy)(hydroxy)phosphoryl)oxy)(hydroxy)phosphoryl)oxy)(naphthalen-1-yloxy)phosphoryl)amino)propanoate di-triethylammonium salt], in the experiment with CCRF-CEM (ALL), the “Survival @ 25 nM” value came out at 36%, the “Survival @ 50 nM” value was found to be 18% and the “Survival @ 125 nM” value turned out to be 13%. In addition, in the experiment with OCI-AML3 (AML), the “Survival @ 50 nM” value was found to be 64% and the “Survival @ 125 nM” value is recorded as 24%. Further, in experiment [1], the “efficacy compared to A and clofarabine” value is listed as “superior efficacy”.

For “(2S)-Cyclohexyl 2-(((((((((2R,3R,4S,5R)-5-(6-amino-2-chloro-9H-purin-9-yl)-4-fluoro-3-hydroxytetrahydrofuran-2-yl)methoxy)(hydroxy)phosphoryl)oxy)(hydroxy)phosphoryl)oxy)(phenoxy)phosphoryl)amino)-3-methylbutanoate di-triethylammonium salt [Compound 5e]”, in the experiment on CCRF-CEM (ALL), the “Survival @ 25 nM” value stood at 99%, the “Survival @ 50 nM” value was 75% and the “Survival @ 125 nM” value came out at 90%. In the experiment on OCI-AML3 (AML), the “Survival @ 50 nM” value amounted to 100% and the “Survival @ 125 nM” value was 95%.

Turning to “(2S)-Isopropyl 2-(((((((((2R,3R,4S,5R)-5-(6-amino-2-chloro-9H-purin-9-yl)-4-fluoro-3-hydroxytetrahydrofuran-2-yl)methoxy)(hydroxy)phosphoryl)oxy)(hydroxy) phosphoryl)oxy)(phenoxy)phosphoryl)amino)propanoate di-triethylammonium salt [Compound 5c]”, in the experiment with CCRF-CEM (ALL), the “Survival @ 25 nM” value was determined as 93%, the “Survival @ 50 nM” value is recorded as 94% and the “Survival @ 125 nM” value worked out at 14%. In the experiment on OCI-AML3 (AML), the “Survival @ 50 nM” value was found to be 99% and the “Survival @ 125 nM” value worked out at 61%.

For the molecule “(2S)-Methyl 2-(((((((((2R,3R,4S,5R)-5-(6-amino-2-chloro-9H-purin-9-yl)-4-fluoro-3-hydroxytetrahydrofuran-2-yl)methoxy)(hydroxy)phosphoryl)oxy)(hydroxy)phosphoryl)oxy)(phenoxy)phosphoryl)amino)-4-(methylthio)butanoate di-triethylammonium salt [Compound 5d]”, in the experiment on CCRF-CEM (ALL), the “Survival @ 25 nM” value is listed as 92%, the “Survival @ 50 nM” value is reported as 16% and the “Survival @ 125 nM” value is 14%. Moreover, in the experiment on OCI-AML3 (AML), the “Survival @ 50 nM” value is recorded as 61% and the “Survival @ 125 nM” value came to 29%. The “efficacy compared to A and clofarabine” value in experiment [1] is on record as “superior efficacy”.

On to “(2S)-Neopentyl 2-(((((((((2R,3R,4S,5R)-5-(6-amino-2-chloro-9H-purin-9-yl)-4-fluoro-3-hydroxytetrahydrofuran-2-yl)methoxy)(hydroxy)phosphoryl)oxy)(hydroxy)phosphoryl)oxy)(phenoxy)phosphoryl)amino)-3-phenylpropanoate di-triethylammonium salt [Compound 5f]”, for which, in the experiment with CCRF-CEM (ALL), the “Survival @ 25 nM” value is given as 85%, the “Survival @ 50 nM” value turned out to be 16% and the “Survival @ 125 nM” value was 14%. Moreover, in the experiment with OCI-AML3 (AML), the “Survival @ 50 nM” value came out at 57% and the “Survival @ 125 nM” value is 32%. Moreover, the “efficacy compared to A and clofarabine” value in [1] is given as “superior efficacy”.

Regarding Clofarabine, the pIC50 in the experiment with HL60 (AML) (HL60, 72 h treatment) is 7.38; in the experiment with RL (lymphoma), 6.94; with KG1 (AML), 6.61; in the experiment on CCRF-CEM (ALL), 7.39; with OCI-AML3 (AML) it was 7.13. Moreover, the “Top Inhibit” value in the experiment on RPMI-8226 is recorded as 80%; in the experiment on HepG2, 57%; with HL-60 it was 97%; in the experiment with KG-1, 93%; in the experiment with K562 it was 32%; in the experiment with CCRF-CEM, 99%. The results for the “Top Inhibit” value in the experiment on RL, with MOLT-4 and in the experiment on HT29 were 61%, 94% and 68%, respectively. Moreover, the negative logarithm of the EC50 (pEC50) with RPMI-8226 is 4.56; with HepG2, 5.96; with HL-60, 7.40; in the experiment on KG-1, 7.15; in the experiment with K562, below 3.70; in the experiment on CCRF-CEM, above 7.70. For the same molecule, the pEC50 with RL was 6.51; with MOLT-4, above 7.70; in the experiment on HT29 (read-out: Ab EC50) it was 6.59. Moreover, the “Survival @ 25 nM” value in the experiment on CCRF-CEM (ALL) is 36%. Besides, the “Survival @ 50 nM” value is listed as 17% in the experiment with CCRF-CEM (ALL) and 47% in the experiment on OCI-AML3 (AML). Besides, the “Survival @ 125 nM” value in the experiment on CCRF-CEM (ALL) came out at 13%; in the experiment with OCI-AML3 (AML), 19%.

A word on the pIC50: it is the negative decadic logarithm of the IC50, by convention in mol/L. Low readings indicate a large IC50, high ones a small IC50. Broadly, the pEC50 is the EC50 on a negative log10 scale, so that one unit is a factor of ten.
